pKi: −log10 of the molar value. Counter-ions that a name gives are not always drawn. Like-named read-outs stand apart in the source and are kept apart here.
Assays:
σ2-receptor = target: T1, σ2-receptor (Mus musculus, UniProt Q8VD00); experiment: Sigma-2 receptor binding, [3H]-DTG, brains from sigma-1 knockout mice; settings: for inhibition at 1 µM: 2 h, tested compound at 10^-6 M, [3H]-DTG 3 nM, read-out: binding sigma-2 (*) % of radioactively labeled compound replaced by the tested compound; for pKi: [3H]-DTG, sigma-1 knockout mouse brain
T1 construct: brains from sigma receptor type I (sigma-1) knockout mice were homogenized; from tissue; host or cells: brain membranes of sigma-1 knockout mice
T1 sequence (Q8VD00 1-176): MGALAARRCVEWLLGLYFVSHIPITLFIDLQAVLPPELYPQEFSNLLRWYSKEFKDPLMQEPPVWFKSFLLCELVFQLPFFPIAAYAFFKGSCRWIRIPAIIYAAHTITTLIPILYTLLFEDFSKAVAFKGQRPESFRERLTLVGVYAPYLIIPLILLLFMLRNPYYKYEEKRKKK
Procedure: In brief, brains from sigma receptor type I (sigma-1) knockout mice were homogenized in a volume of 10 mL/g tissue net weight of ice-cold 10 mM Tris-HCl, pH 7.4, containing 320 mM sucrose (Tris-sucrose buffer) with a Potter-Elvehjem homogenizer (10 strokes at 500 r.p.m.) The homogenates were then centrifuged at 1000 g for 10 min at 4° C., and the supernatants were saved. The pellets were resuspended by vortexing in 2 mL/g ice-cold Tris-sucrose buffer and centrifuged again at 1000 g for 10 min. The combined 1000 g supernatants were centrifuged at 31000 g for 15 min at 4° C. The pellets were resuspended by vortexing in 3 mL/g 10 mM Tris-HCl, pH 7.4, and the suspension was kept at 25° C. for 15 min.
The assay tubes contained 10 μL of [^3H]-DTG (final concentration of 3 nM), 400 μL of the tissue suspension (5.3 mL/g in 50 mM Tris-HCl, pH 8.0) to a final assay volume of 0.5 mL. Non-specific binding was defined by addition of a final concentration of 1 μM haloperidol. […] Filters were washed with three times with 5 mL volumes of cold Tris-HCl buffer (10 mM, pH 8.0). Following addition of scintillation cocktail samples were allowed to equilibrate overnight.

[1] = tested on: carrageenan-induced thermal hyperalgesia in mice; experiment: Carrageenan-induced thermal hyperalgesia model (plantar test, Hargreaves); assay type: in vivo; settings: for activity in the carrageenan thermal hyperalgesia model: mice, two hours after carrageenan
Procedure: Some compounds were also evaluated for antinociceptive activity in the carrageenan-induced thermal hyperalgesia model in mice. In this model, two hours after carrageenan injection into the paw, the plantar test was used to assess thermal hyperalgesia according to the method described by Hargreaves et al. (1988). The compounds of Examples 58 and 62.

σ1-receptor = target: T2, σ1-receptor (Cavia porcellus, UniProt Q60492); experiment: Sigma-1 receptor binding, [3H](+)-pentazocine, brain membranes; parameters: species or system guinea pig; settings: for inhibition at 1 µM: 2.5 h, read-out: binding sigma-1 (*) % of radioactively labeled compound replaced by the tested compound
T2 construct: guinea pig brains were homogenized; from tissue; host or cells: guinea pig brain membranes

[2] = tested on: capsaicin-induced mechanical allodynia in mice; experiment: Effect on capsaicin in development of mechanical allodynia (von Frey filaments); assay type: in vivo; settings: for antiallodynic effect: mice, capsaicin, von Frey filaments
Procedure: Effect on Capsaicin in Development of Mechanical Allodynia This model uses the von-Frey Filaments and is a model to test the effects or symptoms of neuropathic pain, allodynia etc. […]. After habituation mice were according to FIG. 1 first treated with the test-compound (or solvent in controls). Then […] (1% DMSO) is injected into their paw resulting in developing pain in the effected paw. The effected paw is then treated with a mechanical stimulus and the latency time before the paw is withdrawn is measured.

[3] = tested on: mechanical allodynia after partial sciatic nerve ligation in mice; experiment: Partial sciatic nerve ligation model of neuropathic pain (von Frey test); assay type: in vivo; settings: 30 mg/kg s.c.; 11-13 days after surgery
Text: The von Frey test was used to assess mechanical allodynia 11-13 days after surgery.

sigma-2 site = sigma-2 site (Homo sapiens, UniProt Q5BJF2); settings: cited from earlier work
sigma-1 site = sigma-1 site (Homo sapiens, UniProt Q99720); settings: cited from earlier work
[4] = tested compound at 10^-6 M, [3H](+)-pentazocine 0.5 nM
[5] = [3H](+)-pentazocine, guinea pig brain membranes, read-out: binding sigma-1 Ki

T2 sequence (Q60492 whole entry): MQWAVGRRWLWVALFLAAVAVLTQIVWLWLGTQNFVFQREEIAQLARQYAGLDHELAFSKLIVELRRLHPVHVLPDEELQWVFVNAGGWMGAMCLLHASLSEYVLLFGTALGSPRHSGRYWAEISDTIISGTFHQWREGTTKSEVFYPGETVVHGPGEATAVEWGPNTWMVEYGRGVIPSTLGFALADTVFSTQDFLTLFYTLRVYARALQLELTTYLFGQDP
Sequence of sigma-2 site (Q5BJF2 whole entry): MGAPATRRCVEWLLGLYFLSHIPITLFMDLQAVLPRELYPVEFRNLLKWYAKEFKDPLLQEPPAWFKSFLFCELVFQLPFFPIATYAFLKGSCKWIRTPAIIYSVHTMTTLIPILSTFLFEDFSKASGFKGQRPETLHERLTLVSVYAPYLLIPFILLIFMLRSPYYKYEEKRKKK
Sequence of sigma-1 site (Q99720 whole entry): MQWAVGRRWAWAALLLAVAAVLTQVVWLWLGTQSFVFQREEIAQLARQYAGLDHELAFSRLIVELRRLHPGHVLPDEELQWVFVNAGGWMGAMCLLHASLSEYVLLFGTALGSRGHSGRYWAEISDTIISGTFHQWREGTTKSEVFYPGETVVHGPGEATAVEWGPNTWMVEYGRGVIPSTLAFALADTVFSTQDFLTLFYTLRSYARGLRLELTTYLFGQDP

Molecule	inhibition at 1 µM (σ2-receptor)	pKi (σ2-receptor)	inhibition at 1 µM (σ1-receptor; [4])	pKi (σ1-receptor; [5])	melting point	further results
CN(CCC1CCCc2c1cnn2C)Cc1ccccc1.O=C(O)C(=O)O (stereo not shown) [Example 62, N-benzyl-2-(4,5,6,7-tetrahydro-1-methyl-1H-indazol-4-yl)-N-methylethanamine oxalate]	93.5%	7.92	104%	7.95	140.2 to 141.7 °C	analgesia ([1]; 2.5 mg/kg): 40%; analgesia ([1]; 10 mg/kg): 75%; analgesia ([1]; 40 mg/kg): 90%; activity in the carrageenan thermal hyperalgesia model [1]: highly active; antiallodynic effect [2]: clear antiallodynic effect; inhibition of mechanical allodynia [3]: significant inhibition of mechanical allodynia
c1ccc(-n2ncc3c2CCCC3CCN2CCOCC2)cc1 (stereo not shown) [Example 2, 4,5,6,7-tetrahydro-4-(2-(morpholin-4-yl)ethyl)-1-phenyl-1H-indazole oxalate]						antiallodynic effect [2]: clear antiallodynic effect
O=C(O)C(=O)O.c1ccc(-n2ncc3c2CCC3CCN2CCC3(CC2)OCc2ccccc23)cc1 (stereo not shown) [Example 51, 1,4,5,6-tetrahydro-1-phenyl-4-(2-[spiro[isobenzofuran-1(3H), 4′-piperidin]-1′-yl]ethyl)cyclopenta[c]pyrazole oxalate]	113%				170.5 to 173.6 °C	pKi (σ1-receptor): 7.50; inhibition at 1 µM (σ1-receptor): 107%
C(/CN1CCCC(c2ccccc2)C1)=C1/CCCc2c1cnn2-c1ccccc1 (stereo not shown) [Example 23, (E)-4,5,6,7-tetrahydro-1-phenyl-4-(2-(3-phenylpiperidin-1-yl)ethylidene)-1H-indazole]	67.4%		99.4%	7.63	136 to 138 °C	
O=C(O)C(=O)O.c1ccc(-n2ncc3c2CCCC3CCN2Cc3ccccc3C2)cc1 (stereo not shown) [Example 56, 4,5,6,7-tetrahydro-4-(2-(isoindolin-2-yl)ethyl)-1-phenyl-1H-indazole oxalate]	109%	8.85	106%	9.52	195.7 to 200 °C	
C[C@@H]1CN(CCC2CCCc3c2cnn3-c2ccccc2)C[C@H](C)O1.O=C(O)C(=O)O (stereo partly drawn) [Example 49, cis-4,5,6,7-tetrahydro-4-(2-(2,6-dimethylmorpholin-4-yl)ethyl)-1-phenyl-1H-indazole oxalate]	94.6%		101%	8.12	186.6 to 190 °C	
O=C(O)C(=O)O.c1ccc(C2CCN(CCC3CCCc4c3cnn4-c3ccccc3)CC2)cc1 (stereo not shown) [Example 9, 4,5,6,7-tetrahydro-1-phenyl-4-(2-(4-phenylpiperidin-1-yl)ethyl)-1H-indazole oxalate]	107%	7.43	101%	8.82	124 to 125 °C	
O=C(O)C(=O)O.c1ccc(-n2ncc3c2CCC3CCN2CCc3ccccc3C2)cc1 (stereo not shown) [Example 44, 1,2,3,4-tetrahydro-2-(2-(1,4,5,6-tetrahydro-1-phenylcyclopenta[c]pyrazol-4-yl)ethyl)isoquinoline oxalate]	99.4%	6.80	106%	8.70	200.5 to 203 °C	
O=C(O)C(=O)O.c1ccc(-n2ncc3c2CCCC3CCN2CCCCC2)cc1 (stereo not shown) [Example 14, 4,5,6,7-tetrahydro-1-phenyl-4-(2-(piperidin-1-yl)ethyl)-1H-indazole oxalate]	89%		99.8%	8.64	185 to 188 °C	
O=C(O)C(=O)O.c1ccc(-n2ncc3c2CCC3CCN2Cc3ccccc3C2)cc1 (stereo not shown) [Example 35, 2-(2-(1,4,5,6-tetrahydro-1-phenylcyclopenta[c]pyrazol-4-yl)ethyl)isoindoline oxalate]	26.4%		101%	8.03	195 to 197 °C	
c1ccc(-n2ncc3c2CCC3CCn2ccnc2)cc1 (stereo not shown) [Example 45, 4-(2-(1H-imidazol-1-yl)ethyl)-1,4,5,6-tetrahydro-1-phenylcyclopenta[c]pyrazole]	22.8%		76.4%	6.84	102.9 to 105.7 °C	
O=C(O)C(=O)O.c1ccc(-n2ncc3c2CCCC3CCN2CCC3(CC2)OCc2ccccc23)cc1 (stereo not shown) [Example 12, 4,5,6,7-tetrahydro-1-phenyl-4-(2-[spiro[isobenzofuran-1(3H), 4′-piperidin]-1′-yl]ethyl)-1H-indazole oxalate]	98.8%	7.43			133 to 135 °C	pKi (σ1-receptor): 9.05; inhibition at 1 µM (σ1-receptor): 100%
SKF 10047						affinity for the sigma-2 site (sigma-2 site): micromolar affinity; affinity for the sigma-1 site (sigma-1 site): nanomolar affinity
C(/CN1CCC2(CC1)OCc1ccccc12)=C1/CCCc2c1cnn2-c1ccccc1.O=C(O)C(=O)O [Example 19, (E)-4,5,6,7-tetrahydro-1-phenyl-4-(2-[spiro[isobenzofuran-1(3H), 4′-piperidin]-1′-yl]ethylidene)-1H-indazole oxalate]	91%	6.32			155 to 157 °C	pKi (σ1-receptor): 8.31; inhibition at 1 µM (σ1-receptor): 100%
C(/CN1CCOCC1)=C1/CCCc2c1cnn2-c1ccccc1.O=C(O)C(=O)O [Example 77, (E)-4,5,6,7-tetrahydro-4-(2-(morpholin-4-yl)ethylidene)-1-phenyl-1H-indazole oxalate]						antiallodynic effect [2]: clear antiallodynic effect
c1ccc(CN2CCN(CCC3CCCc4c3cnn4-c3ccccc3)CC2)cc1 (stereo not shown) [Example 10, 4-(2-(4-benzylpiperazin-1-yl)ethyl)-4,5,6,7-tetrahydro-1-phenyl-1H-indazole]	70.2%		100%	8.21	98 to 101 °C	
Cn1ncc2c1CCCC2CCN1CCC(c2ccccc2)CC1.O=C(O)C(=O)O (stereo not shown) [Example 58, 4,5,6,7-tetrahydro-1-methyl-4-(2-(4-phenylpiperidin-1-yl)ethyl)-1H-indazole oxalate]	100%	8.20	106%	8.96		analgesia ([1]; 2.5 mg/kg): 60%; analgesia ([1]; 10 mg/kg): ~90%; activity in the carrageenan thermal hyperalgesia model [1]: highly active; analgesia ([2]; 2 mg/kg): 100%; antiallodynic effect [2]: clear antiallodynic effect
C(/CN1CCOCC1)=C1/CCCc2c1cnn2-c1ccccc1 [Example 5, (E)-4,5,6,7-tetrahydro-4-(2-(morpholin-4-yl)ethylidene)-1-phenyl-1H-indazole]	39%		94%	7.43	114 to 116 °C	
C[C@@H]1CN(CCC2CCc3c2cnn3-c2ccccc2)C[C@H](C)O1.O=C(O)C(=O)O (stereo partly drawn) [Example 47, cis-1,4,5,6-tetrahydro-4-(2-(2,6-dimethylmorpholin-4-yl)ethyl)-1-phenylcyclopenta-[c]pyrazole oxalate]	95.9%		104%	8.74	160.2 to 161.5 °C	

From patent US8394797B2, “Substituted pyrazole sigma receptor antagonists” (Laboratorios Del Dr. Esteve, S.A., priority 2004, dated 2013)
